Source: ChEMBL document CHEMBL1142906, “Structure-activity relationships of novel piperazines as antagonists for the melanocortin-4 receptor” (Bioorg Med Chem, 2007)

Key:
[1] = target: D(2) dopamine receptor (Rattus norvegicus, UniProt P61169); test: Displacement of [3H]raclopride from dopamine D2 receptor in rat striatal membranes; format: cell membranes, Membrane
[2] = target: Norepinephrine transporter (Rattus norvegicus, UniProt Q9WTR4); test: Displacement of [3H]nisoxetine from NET in rat cortical membranes; format: cell membranes, Membrane
Norepinephrine transporter, sequence (Q9WTR4 whole entry): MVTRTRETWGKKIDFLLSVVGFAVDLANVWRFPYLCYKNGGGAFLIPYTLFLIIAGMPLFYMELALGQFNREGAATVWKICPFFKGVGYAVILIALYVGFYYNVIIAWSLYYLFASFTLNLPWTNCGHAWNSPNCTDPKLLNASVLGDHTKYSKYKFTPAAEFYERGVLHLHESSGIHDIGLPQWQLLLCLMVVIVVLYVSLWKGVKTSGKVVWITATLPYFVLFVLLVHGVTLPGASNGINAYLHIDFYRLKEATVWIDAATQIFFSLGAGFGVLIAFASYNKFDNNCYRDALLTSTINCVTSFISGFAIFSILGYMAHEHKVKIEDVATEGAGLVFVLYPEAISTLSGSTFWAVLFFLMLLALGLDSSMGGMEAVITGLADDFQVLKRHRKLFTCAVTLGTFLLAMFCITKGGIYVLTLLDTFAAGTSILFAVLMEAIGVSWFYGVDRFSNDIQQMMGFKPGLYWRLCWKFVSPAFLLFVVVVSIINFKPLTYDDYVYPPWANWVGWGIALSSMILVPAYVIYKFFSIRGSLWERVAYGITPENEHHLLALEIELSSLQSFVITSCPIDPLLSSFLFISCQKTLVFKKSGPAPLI

[3] = target: Melanocortin receptor 4 (Homo sapiens, UniProt P32245); test: Displacement of [125I]Nle4-D-Phe7-alpha-MSH from human MC4 receptor expressed in COS1 cells; format: cell-based, COS-1
Melanocortin receptor 4, sequence (P32245 whole entry): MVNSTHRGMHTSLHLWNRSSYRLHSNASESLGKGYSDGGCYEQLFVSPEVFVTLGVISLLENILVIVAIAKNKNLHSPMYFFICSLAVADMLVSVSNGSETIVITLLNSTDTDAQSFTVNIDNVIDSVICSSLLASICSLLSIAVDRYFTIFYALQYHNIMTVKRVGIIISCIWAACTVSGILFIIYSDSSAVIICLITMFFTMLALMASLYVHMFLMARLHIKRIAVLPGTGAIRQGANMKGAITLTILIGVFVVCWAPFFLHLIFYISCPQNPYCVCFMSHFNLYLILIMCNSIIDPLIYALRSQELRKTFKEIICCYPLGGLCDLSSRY

[4] = target: Delta-type opioid receptor (Rattus norvegicus, UniProt P33533); test: Displacement of [3H]DPDPE from delta opiate receptor in rat brain membranes; format: cell membranes
Delta-type opioid receptor, sequence (P33533 whole entry): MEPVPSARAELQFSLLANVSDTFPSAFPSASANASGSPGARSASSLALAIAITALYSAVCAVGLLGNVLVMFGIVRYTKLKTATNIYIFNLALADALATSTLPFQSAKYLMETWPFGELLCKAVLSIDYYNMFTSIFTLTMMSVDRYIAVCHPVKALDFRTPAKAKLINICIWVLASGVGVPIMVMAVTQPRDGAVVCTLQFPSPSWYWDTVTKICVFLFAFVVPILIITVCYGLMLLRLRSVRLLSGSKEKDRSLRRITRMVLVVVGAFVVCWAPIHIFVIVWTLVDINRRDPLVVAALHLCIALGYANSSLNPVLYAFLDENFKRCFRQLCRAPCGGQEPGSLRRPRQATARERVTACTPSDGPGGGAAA

[5] = target: Sodium-dependent serotonin transporter (Rattus norvegicus, UniProt P31652); test: Displacement of [3H][…] from SET in rat cortical membranes; format: cell membranes, Membrane
Sodium-dependent serotonin transporter, sequence (P31652 whole entry): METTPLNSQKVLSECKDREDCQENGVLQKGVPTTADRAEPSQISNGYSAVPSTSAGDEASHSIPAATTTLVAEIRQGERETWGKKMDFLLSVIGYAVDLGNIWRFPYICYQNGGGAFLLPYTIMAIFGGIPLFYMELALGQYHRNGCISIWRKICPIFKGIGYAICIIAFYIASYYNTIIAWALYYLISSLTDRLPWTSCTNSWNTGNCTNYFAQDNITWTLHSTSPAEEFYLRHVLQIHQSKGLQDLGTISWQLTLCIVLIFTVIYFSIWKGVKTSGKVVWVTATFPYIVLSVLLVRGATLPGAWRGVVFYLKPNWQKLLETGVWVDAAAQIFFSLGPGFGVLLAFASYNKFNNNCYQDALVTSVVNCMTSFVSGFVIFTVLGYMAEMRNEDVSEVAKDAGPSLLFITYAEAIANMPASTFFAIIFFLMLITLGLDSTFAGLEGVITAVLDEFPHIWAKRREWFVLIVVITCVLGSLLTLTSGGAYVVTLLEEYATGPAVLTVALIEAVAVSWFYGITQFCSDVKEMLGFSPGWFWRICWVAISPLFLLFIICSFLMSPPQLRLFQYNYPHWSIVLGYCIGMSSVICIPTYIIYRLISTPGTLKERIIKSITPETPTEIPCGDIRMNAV

[6] = target: T1, Adrenergic receptor alpha-1 (Rattus norvegicus, UniProt P15823+P23944+P43140); test: Displacement of [3H]prazosin from adrenergic alpha-1 receptor in rat cortical membranes; format: cell membranes, Membrane
T1 sequence (P15823 whole entry): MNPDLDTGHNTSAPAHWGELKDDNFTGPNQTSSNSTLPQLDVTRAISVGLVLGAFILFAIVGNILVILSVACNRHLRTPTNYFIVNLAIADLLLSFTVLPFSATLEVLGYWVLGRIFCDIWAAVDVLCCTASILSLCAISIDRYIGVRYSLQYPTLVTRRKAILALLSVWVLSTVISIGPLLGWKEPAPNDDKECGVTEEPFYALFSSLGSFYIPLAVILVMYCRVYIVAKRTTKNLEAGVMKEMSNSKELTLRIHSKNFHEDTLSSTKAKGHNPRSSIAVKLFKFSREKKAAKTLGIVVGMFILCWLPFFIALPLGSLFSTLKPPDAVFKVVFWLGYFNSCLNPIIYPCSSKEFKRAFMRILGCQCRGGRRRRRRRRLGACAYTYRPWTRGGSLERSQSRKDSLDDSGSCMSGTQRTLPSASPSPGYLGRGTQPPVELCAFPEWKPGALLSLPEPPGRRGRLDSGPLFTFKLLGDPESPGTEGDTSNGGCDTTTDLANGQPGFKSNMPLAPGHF
T1 sequence (P23944 whole entry): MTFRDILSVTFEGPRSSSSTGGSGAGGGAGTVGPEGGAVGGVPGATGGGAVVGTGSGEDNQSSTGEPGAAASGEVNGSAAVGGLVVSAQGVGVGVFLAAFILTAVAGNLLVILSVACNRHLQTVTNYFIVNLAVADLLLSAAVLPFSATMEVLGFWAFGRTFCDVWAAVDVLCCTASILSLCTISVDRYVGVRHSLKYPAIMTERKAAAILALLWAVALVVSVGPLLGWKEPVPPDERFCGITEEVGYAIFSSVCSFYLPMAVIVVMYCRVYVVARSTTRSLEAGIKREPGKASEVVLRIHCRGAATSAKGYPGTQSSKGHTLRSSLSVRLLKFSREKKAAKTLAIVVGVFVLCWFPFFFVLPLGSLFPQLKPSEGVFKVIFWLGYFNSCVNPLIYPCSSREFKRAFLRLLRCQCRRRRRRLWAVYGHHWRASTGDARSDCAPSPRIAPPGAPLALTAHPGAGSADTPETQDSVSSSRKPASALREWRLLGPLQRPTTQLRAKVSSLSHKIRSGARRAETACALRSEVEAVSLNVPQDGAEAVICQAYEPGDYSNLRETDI
T1 sequence (P43140 whole entry): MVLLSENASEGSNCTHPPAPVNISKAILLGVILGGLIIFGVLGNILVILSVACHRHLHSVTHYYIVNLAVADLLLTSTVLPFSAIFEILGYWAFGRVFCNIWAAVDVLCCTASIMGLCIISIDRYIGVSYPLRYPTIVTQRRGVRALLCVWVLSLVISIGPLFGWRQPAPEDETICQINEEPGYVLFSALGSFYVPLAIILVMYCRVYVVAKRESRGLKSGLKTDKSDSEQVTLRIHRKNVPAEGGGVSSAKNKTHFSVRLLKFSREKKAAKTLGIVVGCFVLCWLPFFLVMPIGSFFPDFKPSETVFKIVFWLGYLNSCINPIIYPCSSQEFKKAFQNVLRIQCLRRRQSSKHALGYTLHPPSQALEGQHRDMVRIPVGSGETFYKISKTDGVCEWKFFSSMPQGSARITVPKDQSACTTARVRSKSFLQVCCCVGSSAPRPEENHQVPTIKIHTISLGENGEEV

[7] = target: Histamine H1 receptor (Rattus norvegicus, UniProt P31390); test: Displacement of [3H]pyrilamine from histamine H1 receptor in rat brain membranes; format: cell membranes
Histamine H1 receptor, sequence (P31390 whole entry): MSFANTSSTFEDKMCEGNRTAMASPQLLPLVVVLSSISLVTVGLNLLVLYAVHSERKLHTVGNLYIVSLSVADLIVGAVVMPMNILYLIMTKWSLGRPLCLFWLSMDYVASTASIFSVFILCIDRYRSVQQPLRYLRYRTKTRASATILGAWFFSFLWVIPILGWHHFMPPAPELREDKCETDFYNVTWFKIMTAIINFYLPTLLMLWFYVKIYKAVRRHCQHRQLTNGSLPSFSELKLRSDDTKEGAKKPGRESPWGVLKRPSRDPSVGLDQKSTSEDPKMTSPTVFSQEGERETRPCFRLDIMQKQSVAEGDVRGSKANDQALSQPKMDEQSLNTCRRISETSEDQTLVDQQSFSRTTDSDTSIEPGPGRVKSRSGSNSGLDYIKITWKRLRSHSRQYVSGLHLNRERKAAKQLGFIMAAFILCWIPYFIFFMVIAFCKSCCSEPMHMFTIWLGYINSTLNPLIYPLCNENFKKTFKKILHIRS

[8] = target: Mu-type opioid receptor (Rattus norvegicus, UniProt P33535); test: Displacement of [3H]DAMGO from mu opiate receptor in rat brain membranes; format: cell membranes
Mu-type opioid receptor, sequence (P33535 whole entry): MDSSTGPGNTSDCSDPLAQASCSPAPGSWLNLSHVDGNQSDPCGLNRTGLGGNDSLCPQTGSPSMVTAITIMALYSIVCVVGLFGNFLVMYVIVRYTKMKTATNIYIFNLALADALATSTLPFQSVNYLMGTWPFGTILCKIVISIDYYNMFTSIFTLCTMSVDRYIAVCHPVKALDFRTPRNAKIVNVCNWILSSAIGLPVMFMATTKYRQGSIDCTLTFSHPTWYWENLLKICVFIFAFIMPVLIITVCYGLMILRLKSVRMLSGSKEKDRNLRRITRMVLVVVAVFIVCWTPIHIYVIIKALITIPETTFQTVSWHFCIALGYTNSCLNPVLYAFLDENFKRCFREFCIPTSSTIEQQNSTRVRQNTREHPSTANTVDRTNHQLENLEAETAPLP

D(2) dopamine receptor, sequence (P61169 whole entry): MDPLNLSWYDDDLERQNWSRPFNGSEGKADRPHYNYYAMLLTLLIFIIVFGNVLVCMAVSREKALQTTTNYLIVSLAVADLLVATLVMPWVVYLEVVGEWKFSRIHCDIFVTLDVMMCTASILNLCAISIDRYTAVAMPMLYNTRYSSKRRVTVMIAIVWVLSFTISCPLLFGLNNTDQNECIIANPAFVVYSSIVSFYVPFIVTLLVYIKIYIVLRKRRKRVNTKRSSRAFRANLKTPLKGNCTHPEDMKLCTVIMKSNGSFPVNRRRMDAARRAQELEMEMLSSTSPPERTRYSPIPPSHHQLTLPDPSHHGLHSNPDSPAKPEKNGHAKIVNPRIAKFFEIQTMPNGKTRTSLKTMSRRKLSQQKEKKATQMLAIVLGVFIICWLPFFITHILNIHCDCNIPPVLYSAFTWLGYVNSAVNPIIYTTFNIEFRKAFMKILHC

SMILES: CC(C)N1CCN(C(CN2CCN(CCCc3cc(F)ccc3-c3ccccc3)CC2)c2ccc(F)cc2)CC1 (racemic)
- IC50 [1]: 721 nM
- IC50 [2]: 369 nM
- IC50 [3]: 27.1 nM
- IC50 [4]: > 10 µM
- IC50 [5]: 1170 nM
- IC50 [6]: > 1000 nM
- IC50 [7]: > 1000 nM
- IC50 [8]: > 10 µM

SMILES: CC(C)N1CCN(C(CN2CCN(CCCc3ccccc3-c3ccccc3)CC2)c2ccc(F)cc2)CC1 (racemic)
- IC50 [1]: 645 nM
- IC50 [2]: 671 nM
- IC50 [3]: 11.2 nM
- IC50 [4]: > 10 µM
- IC50 [5]: 3130 nM
- IC50 [6]: > 1000 nM
- IC50 [7]: > 1000 nM
- IC50 [8]: > 10 µM

SMILES: CC(C)N1CCN(C(CN2CCN(CCCc3c(Cl)cccc3-c3ccccc3)CC2)c2ccc(F)cc2)CC1 (racemic)
- IC50 [1]: > 1000 nM
- IC50 [2]: 1770 nM
- IC50 [3]: 27.1 nM
- IC50 [4]: > 10 µM
- IC50 [5]: 1290 nM
- IC50 [6]: > 1000 nM
- IC50 [7]: > 1000 nM
- IC50 [8]: > 10 µM

SMILES: CC(C)N1CCN(C(CN2CCN(CCCc3ccccc3-c3cccc(F)c3)CC2)c2ccc(F)cc2)CC1 (racemic)
- IC50 [1]: > 1000 nM
- IC50 [2]: 226 nM
- IC50 [3]: 23.6 nM
- IC50 [4]: > 10 µM
- IC50 [5]: 2110 nM
- IC50 [6]: > 1000 nM
- IC50 [7]: > 1000 nM
- IC50 [8]: > 10 µM

SMILES: CC(C)N1CCN(C(CN2CCN(CCCc3c(F)cccc3-c3ccccc3)CC2)c2ccc(F)cc2)CC1 (racemic)
- IC50 [1]: > 1000 nM
- IC50 [2]: 206 nM
- IC50 [3]: 11.7 nM
- IC50 [4]: > 10 µM
- IC50 [5]: 1460 nM
- IC50 [6]: > 1000 nM
- IC50 [7]: > 1000 nM
- IC50 [8]: > 10 µM

SMILES: CC(C)N1CCN(C(CN2CCN(CCCc3ccc(F)cc3-c3ccccc3)CC2)c2ccc(F)cc2)CC1 (racemic)
- IC50 [1]: > 1000 nM
- IC50 [2]: 1850 nM
- IC50 [3]: 33 nM
- IC50 [4]: > 10 µM
- IC50 [5]: 1370 nM
- IC50 [6]: > 1000 nM
- IC50 [7]: > 1000 nM
- IC50 [8]: > 10 µM

SMILES: CC(C)N1CCN(C(CN2CCN(CCCc3cccc(F)c3-c3ccccc3)CC2)c2ccc(F)cc2)CC1 (racemic)
- IC50 [1]: > 1000 nM
- IC50 [2]: 2830 nM
- IC50 [3]: 23 nM
- IC50 [4]: > 10 µM
- IC50 [5]: 3400 nM
- IC50 [6]: > 1000 nM
- IC50 [7]: > 1000 nM
- IC50 [8]: > 10 µM

SMILES: Cc1cccc(-c2ccccc2)c1CCCN1CCN(CC(c2ccc(F)cc2)N2CCN(C(C)C)CC2)CC1 (racemic)
- IC50 [1]: > 1000 nM
- IC50 [2]: 2400 nM
- IC50 [3]: 24.3 nM
- IC50 [4]: > 10 µM
- IC50 [5]: 4960 nM
- IC50 [6]: > 1000 nM
- IC50 [7]: > 1000 nM
- IC50 [8]: > 10 µM

SMILES: CC(C)N1CCN(C(CN2CCN(CCCc3ccccc3-c3ccc(F)cc3)CC2)c2ccc(F)cc2)CC1 (racemic)
- IC50 [1]: 721 nM
- IC50 [2]: 290 nM
- IC50 [3]: 10.5 nM
- IC50 [4]: > 10 µM
- IC50 [5]: 1340 nM
- IC50 [6]: > 1000 nM
- IC50 [7]: > 1000 nM
- IC50 [8]: > 10 µM
